# Data as given in patent US12186413B2, “Non-cellular root canal filler and non-cellular dental tissue regeneration promotion kit” (KOWA COMPANY, LTD., priority 2019, dated 2025).
# Where two headings read alike, the source gives them in different places.
# What was measured:
# [1] = test system: dental pulp; test: Dental pulp regeneration after pulpectomy in young dogs with non-cellular root canal filler; format: in vivo, dog; details: for dental pulp regeneration (H-E staining, morphological observation) / infiltration / internal absorption of inflammatory cells: 12-month-old dogs; for dental pulp regeneration (H-E staining, morphological observation) / infiltration / internal absorption of inflammatory cells / regeneration of dental pulp-like tissues (H-E staining): trypsin pretreatment; for dental pulp regeneration (H-E staining, morphological observation): 1.25 μg compound B or 0.83 μg SB328437 + 150 ng G-CSF in 20 μl collagen; for infiltration / internal absorption of inflammatory cells: filler with G-CSF and collagen; for amount of the regenerated dental pulp (ratio of regenerated dental pulp area to dental pulp cavity area): compound B filler compared with SB328437 filler
# Description: After general anesthesia, pulpectomy was performed for maxillary and mandibular right and left anterior teeth in young (12-month-old) dogs. The openings were enlarged to the apex of the root with #55, then washed alternately with a 5% sodium hypochlorite solution and a 3% hydrogen peroxide solution, further washed with saline, dried, and then temporarily sealed with a resin completely. At 3 to 12 days after the pulpectomy, the temporary seals were removed, and the openings were washed alternately and washed with saline again. Then, the root canals were filled with 3% EDTA (Smear Clean, Nippon Shika Yakuhin Co., Ltd.), treated for 2 minutes, further washed with saline, and dried. Then, the root canals were pretreated by the application of trypsin preparation (5 mg of Francetin T powder (2,500 USP crystal trypsin per 10 mg, Mochida Pharmaceutical Co., Ltd.)/ml of 0.5% nanobubble water (prepared with Foamest 8 (NAC Corp.); see Koichiro Iohara and Misako Nakajima “Enhanced Delivery of Antibacterial Nanopolymers with Nanobubbles for the Complete Disinfection of the Root Canal System in a Canine Model of Intractable Periapical Disease”, The Japanese Journal Of Conservative Dentistry, Vol. 63, No. 1, p. 73-82) for 10 minutes, and then washed with saline. Subsequently, a CCR3 antagonist (1.25 μg of compound B or 0.83 μg of SB328437 (Tocris Bioscience)) as a regeneration promoting compound and 150 ng of G-CSF (Neutrogin, Chugai Pharmaceutical Co., Ltd.) as a chemotactic factor were added to 20 μl of extracellular matrix collagen (Koken Atelocollagen Implant, Koken Co., Ltd.) to prepare a non-cellular root canal filler, which was then filled into the root canals. Then, a gelatin sponge for hemostasis (Spongel, Astellas Pharma Inc.) was placed thereon, and the cavities were completely sealed with glass ionomer cement and a photopolymerizable resin. Then, 28 days after transplantation, the teeth were extracted, and 5 μm paraffin sections were prepared on longitudinal sections according to a standard method, stained with H-E, and then morphologically observed. The amount of the regenerated dental pulp was evaluated by measuring the ratio of the area of regenerated dental pulp to the area of a dental pulp cavity as to four sections per sample, and calculating the mean of four samples. Angiogenesis was evaluated by staining day 28 specimens with Fluorescein labeled Griffonia simplicifolia (Bandeiraea simplicifolia) Lectin I (GSL I, BSL I) and Fluorescein labeled Galanthus nivalis (Snowdrop) Lectin (GNL) (Vector Laboratories) (20 μg/ml) for 15 minutes, followed by comparative examination. Neurite extension was evaluated by immunostaining day-28 specimens with an anti-PGP9.5 antibody (UltraClone, 1:10,000), followed by comparative examination.
# After general anesthesia, pulpectomy was performed for maxillary and mandibular right and left anterior teeth in young (11-month-old) dogs. The openings were enlarged to the apex of the root with #55, then washed alternately with a 5% sodium hypochlorite solution and a 3% hydrogen peroxide solution, and further washed with saline. The root canals were thoroughly dried with a paper point and temporarily sealed with cement and a resin completely after hemostasis. Then, 8 days after the pulpectomy, the temporary seals were removed, and the openings were washed alternately and washed with saline again. Then, the root canals were filled with 3% EDTA (Smear Clean, Nippon Shika Yakuhin Co., Ltd.), treated for 2 minutes, further washed with saline, and dried. Then, the root canals were pretreated by the application of a trypsin preparation (5 mg of Francetin T powder (2,500 USP crystal trypsin per 10 mg), Mochida Pharmaceutical Co., Ltd.)/ml of 0.5% nanobubble water (prepared with Foamest 8 (NAC Corp.); as described in Example 1)) for 10 minutes, and then washed with saline. […]
# [2] = test system: dental pulp stem cells; details: dentin surfaces treated with trypsin in vitro; cited from earlier work
# [3] = test system: dental pulp; details: cited from earlier work
# [4] = Example 3, compound B filler, 28 days
# [5] = Example 3, with and without trypsin pretreatment, 28 days
compound,measurement,setting,value
"CC(C)Nc1ccc(CNCCN2Cc3ccc(F)cc3CC2Cc2ccc(F)cc2)cc1.O=C(O)/C=C/C(=O)O (single isomer, unassigned; (+)) [compound B, (+)-4-[[2-[6-fluoro-3-(4-fluorobenzyl)-3,4-dihydroisoquinolin-2(1H)-yl]ethylamino]methyl]-N-isopropylaniline monofumarate]","dental pulp regeneration (H-E staining, morphological observation)","[1]; Example 1, 28 days",found to cause dental pulp regeneration of loose connective tissues rich in blood vessels
same,infiltration / internal absorption of inflammatory cells,"[1]; Example 1, 28 days",neither the infiltration nor internal absorption of inflammatory cells was observed
same,amount of the regenerated dental pulp (ratio of regenerated dental pulp area to dental pulp cavity area),"[1]; Example 1, 28 days",No statistically significant difference
same,angiogenesis (lectin staining),"[1]; Example 1, day 28 specimens",confirmed
same,neurite extension (PGP9.5 immunostaining),"[1]; Example 1, day 28 specimens",confirmed
same,odontoblast-like cell adhesion to dentin side wall / dentin-like hard tissue formation,"[1]; Example 1, day 28 specimens",odontoblast-like cells adhere to the side wall of the dentin to form dentin-like hard tissues
same,regeneration of dental pulp-like tissues (H-E staining),"[1]; Example 2, 11-month-old dogs, 1.25 μg compound B + 150 ng G-CSF in collagen, 28 days",found to sufficiently regenerate dental pulp-like tissues
same,amount of the regenerated dental pulp versus filler containing no compound B,"[1]; Example 2, 28 days",Statistically significant difference
same,angiogenesis (BS-1 lectin staining) versus filler containing no compound B,"[1]; Example 2, 28 days",similar
same,neurite extension (PGP9.5 immunostaining) versus filler containing no compound B,"[1]; Example 2, 28 days",similar
same,regeneration of dental pulp tissues (H-E staining),"[1]; Example 3, 11-month-old dogs, with or without trypsin pretreatment, 1.25 μg compound B + 150 ng G-CSF in collagen, 28 days","regeneration of dental pulp tissues was observed, regardless of whether trypsin pretreatment was performed or not"
same,"amount of regenerated dental pulp, with versus without trypsin pretreatment",[1]; [4],"tended to slightly increase the amount of regenerated dental pulp, albeit with no statistically significant difference"
same,"odontoblast-like cell adhesion to dentin side wall and dentin-like hard tissue amount, with versus without trypsin pretreatment",[1]; [4],tended to allow more odontoblast-like cells to adhere to the side wall of the dentin and form dentin-like hard tissues in a slightly higher amount
same,angiogenesis (BS-1 lectin staining),[1]; [5],similarly observed in both these cases
same,neurite extension (PGP9.5 immunostaining),[1]; [5],similarly observed in both these cases
same,"dental pulp regeneration, odontoblast-like cell adhesion and dentin-like hard tissue formation","[1]; Example 3, without trypsin pretreatment, 28 days",regenerates the dental pulp with angiogenesis and neurite extension
"CS(=O)(=O)Nc1cccc(CNCCN2Cc3ccc(F)cc3CC2Cc2ccc(F)cc2)c1.O=C(O)CC(O)(CC(=O)O)C(=O)O (single isomer, unassigned; (+)) [compound C, (+)-N-[3-(methanesulfonylamino)benzyl]-2-[6-fluoro-3-(4-fluorobenzyl)-3,4-dihydroisoquinolin-2(1H)-yl]ethanamine monocitrate]",regeneration of dental pulp-like tissues (H-E staining),"[1]; Example 4, 11-month-old dogs, 1.2 μg compound C + 150 ng G-CSF in collagen, 28 days",found to sufficiently regenerate dental pulp-like tissues
same,area of the dentin (ratio to area of tooth) versus filler containing no compound C,"[1]; Example 4, 28 days",tended to increase the area of the dentin
same,density of dentin cells (within 1 mm from root canal side wall) versus filler containing no compound C,"[1]; Example 4, 28 days",increased the density of dentin cells
"COC(=O)[C@H](Cc1ccc([N+](=O)[O-])cc1)NC(=O)c1cccc2ccccc12 [SB328437, reference compound]","dental pulp regeneration (H-E staining, morphological observation)","[1]; Example 1, 28 days",found to cause dental pulp regeneration of loose connective tissues rich in blood vessels
same,infiltration / internal absorption of inflammatory cells,"[1]; Example 1, 28 days",neither the infiltration nor internal absorption of inflammatory cells was observed
same,amount of the regenerated dental pulp (ratio of regenerated dental pulp area to dental pulp cavity area),"[1]; Example 1, 28 days",No statistically significant difference
same,angiogenesis (lectin staining),"[1]; Example 1, day 28 specimens",confirmed
same,neurite extension (PGP9.5 immunostaining),"[1]; Example 1, day 28 specimens",confirmed
same,odontoblast-like cell adhesion to dentin side wall / dentin-like hard tissue formation,"[1]; Example 1, day 28 specimens",odontoblast-like cells adhere to the side wall of the dentin to form dentin-like hard tissues
trypsin,adhesion of the cells,[2],increased the adhesion of the cells
same,differentiation into odontoblasts,[2],exhibited enhancement in differentiation into odontoblasts
same,dental pulp regeneration,"[3]; middle-aged and elderly dogs, with dental pulp stem cell transplantation",promoted
same,dental pulp regeneration,[3]; without the transplantation of dental pulp stem cells,rarely observed
same,dental pulp regeneration,"[3]; young dogs, with dental pulp stem cell transplantation",not found to be effective
